Laboratory results: patent publication US20220401385A1, “Combination Therapy Based on PD-1 Signaling Inhibitors” (Kyoto University, priority 2019, published 2022)

Key:
CD44 high CD8+ T cells = experiment: Observation of mitochondria under electron microscope, CD44 high cells; assay type: cell-based, mice; settings: SPD 0.2 μM, 1 hour
Description: FIG. 5 CD8^+ T cells were isolated from the spleen of mice without tumor inoculation, and further isolated into CD44^+ (CD44 high) and CD44^− (CD44 low) cell populations. a) CD44 low cells were simulated with CD3/CD28 antibody beads and SPD (0.2 μM). […] Protein expression levels after 1 hour and 2 hours were confirmed by western blotting with the respective indicated antibodies. As regards statistical analysis, t-test was used for comparison of two groups. * p<0.05, ** p<0.01, *** p<0.001, **** p<0.0001.
CD8^+ T cells (2×10^5) were stimulated with 0.2 μM spermidine for 1 hour. Then, cells were harvested, embedded in Ipgell (GenoStaff) and fixed with 4% paraformaldehyde and 2% glutaraldehyde. Images were taken with a transmission electron microscope (TEM). Mitochondrial size was determined with ImageJ software. As regards mitochondrial number, average numbers in single cell were determined with Prism software. Blind testing was used for observation and analysis of mitochondria.

CD8+ T cells = experiment: Seahorse ATP production and SRC of draining lymph node CD8+ T cells of treated aged mice; assay type: in vivo; settings: 56-week old mice, SPD combination treatment group
Description: FIG. 7 MC38 cells (5×10^5) were intradermally inoculated into 56-week old mice, which were treated along with the treatment schedule described in FIG. 1. PD-L1 antibody (2 mg/kg) and SPD (2 mg/kg) were used. a) Tumor growth curve and survival curve are shown. b) The frequency of CD8^+ T cells among lymphocytes infiltrating into tumor (in CD45^+ gate) and the absolute number of CD8^+ T cells per mg tumor 13 days after tumor inoculation are shown. c) CD8^+ T cells were isolated from spleen cells on the same schedule as b) and cultured for 20 hours under the stimulation with CD3/CD28. Cell proliferation was examined by means of ^3H uptake. d) CD8^+ T cells were isolated from draining lymph nodes on the same schedule as b) and glycolytic pathway-derived or mitochondrial metabolism-derived ATP production was calculated by Seahorse. e) Spare respiratory capacity (SRC) was also calculated in the experiment (d).
Oxygen consumption rates were measured using an XF96 Extracellular Flux Analyzer (Seahorse Bioscience). CD8^+ T cells (4×10^5) per well were seeded in a determined XF96 plate. […] In brief, basal OCR measurement was performed […] sequential addition of oligomycin, FCCP, and rotenone/antimycin A. SRC and ATP production rates were calculated by the following formulas: […]

SMILES: NCCCCNCCCN [SPD, spermidine]
- mitochondrial morphology (CD44 high CD8+ T cells): fusion of mitochondria
- number of mitochondria per cell (CD44 high CD8+ T cells): decreased
- size per mitochondrion (CD44 high CD8+ T cells): increased
- structure of cristae (CD44 high CD8+ T cells): damaged in structures
- SRCs of CD8+ T cells (CD8+ T cells): increased
- production of ATP, mitochondrial metabolism-dependent (CD8+ T cells): increased
